{
  "source": "patent US10023560B2",
  "about": "“Crystalline salt form of (S)-(2-(6 chloro-7-methyl-1H-benzo[d]imidazol-2-yl)-2-methylpyrrolidin-1-yl)(5-methoxy-2-(2H-1,2,3-triazol-2-yl)phenyl)methanone as orexin receptor antagonist” (priority 2013, dated 2018)",
  "key": {"[1]": {"assay": "Gravimetric vapour sorption (GVS) analysis", "format": "physicochemical", "description": "Gravimetric Vapour Sorption (GVS) Analysis\nThe sample was allowed to equilibrate at 40% RH before starting a pre-defined humidity program (40-0-95-0-95-40% RH, steps of 5% ΔRH and with a maximal equilibration time of 24 hours per step were applied. About 20 to 30 mg of each sample was used. The hygroscopic classification is done according to the European Pharmacopeia Technical Guide (1999, page 86), e.g., slightly hygroscopic: increase in mass is less than 2% and equal to or greater than 0.2% mass/mass; hygroscopic: increase in mass is less than 15% and equal to or greater than 2% mass/mass. The mass change between 40% relative humidity and 80% relative humidity in the first adsorption scan is considered."}, "Wistar rats": {"test_system": "Wistar rats", "assay": "Sedative effects: EEG, EMG and behavioural indices of alertness by radiotelemetry", "format": "in vivo", "conditions": "30 mg/kg po, effects analyzed over 6 hours", "description": "Sedative Effects: EEG, EMG and Behavioural Indices of Alertness Recorded by Radiotelemetry In Vivo in Wistar Rats.\nElectroencephalography (EEG) and Electromyography (EMG) signals were measured by telemetry using TL11M2-F20-EET miniature radiotelemetric implants (Data Science Int.) with two pairs of differential leads.\nSurgical implantation was performed under general anesthesia with Ketamin/Xylazin, for cranial placement of one differential pair of EEG electrodes and one pair of EMG leads inserted in either side of the muscles of the neck. After surgery, rats recovered in a thermoregulated chamber and received analgesic treatment with subcutaneous buprenorphine twice a day for 2 d. They were then housed individually and allowed to recover for a minimum of 2 weeks. Thereafter, rats—in their home cage—were placed in a ventilated sound-attenuating box, on a 12-h light/12-h dark cycle, for acclimatization before continuous EEG/EMG recordings started. The telemetric technology that we used in this study allows accurate and stress-free acquisition of biosignals in rats placed in their familiar home cage environment, with no recording leads restricting their movements. Variables analyzed included four different stages of vigilance and sleep, spontaneous activity in the home cage and body temperature. Sleep and wake stages were evaluated using a rodent scoring software (Somnologica Science) directly processing electrical biosignals on 10 s contiguous epochs. The scoring is based on frequency estimation for EEG and amplitude discrimination for EMG and locomotor activity. Using these measurements, the software determines the probability that all components within each epoch best represent active waking (AW), quiet waking (QW), non-REM-sleep (NREM) or REM-sleep (REM). The percentage of total time spent in AW, QW, NREM- and REM-sleep was calculated per 12 h light or dark period. The latency to the onset of the first significant NREM- and REM-sleep episodes and the frequency and duration of those episodes were also calculated. […] All variables were subsequently recorded for 12 h following administration of the orexin receptor antagonist."}, "rodents [2]": {"test_system": "rodents", "conditions": "cited from earlier work"}, "rodents [3]": {"test_system": "rodents", "conditions": "induced by repeated amphetamine administration in rodents; cited from earlier work"}, "mouse": {"test_system": "mouse", "conditions": "mouse model of depression, administered chronically; cited from earlier work"}, "rat [4]": {"test_system": "rat", "conditions": "cited from earlier work"}, "rats [5]": {"test_system": "rats", "conditions": "cited from earlier work"}, "humans": {"test_system": "humans", "conditions": "indication primary insomnia; cited from earlier work"}, "rat [6]": {"test_system": "rat", "conditions": "rat model; cited from earlier work"}, "rat [7]": {"test_system": "rat", "conditions": "animal model of conditioned fear; cited from earlier work"}, "fasted hungry rats": {"test_system": "fasted hungry rats", "conditions": "fasted hungry rats exposed to food odors; cited from earlier work"}, "[8]": {"test_system": "amyloid precursor protein transgenic mice", "conditions": "after acute sleep restriction; cited from earlier work"}, "rats [9]": {"test_system": "rats", "conditions": "rats treated with the compound; cited from earlier work"}},
  "data": [
    {"smiles": "COc1ccc(-n2nccn2)c(C(=O)N2CCC[C@@]2(C)c2nc3c(C)c(Cl)ccc3[nH]2)c1", "note": "[COMPOUND, (S)-(2-(6-chloro-7-methyl-1H-benzo[d]imidazol-2-yl)-2-methylpyrrolidin-1-yl)(5-methoxy-2-(2H-1,2,3-triazol-2-yl)phenyl)methanone]", "values": [
      {"measurement": "Hygroscopicity: sorption of moisture", "setting": "[1]; humidity program 40-0-95-0-95-40% RH, 25° C.", "value": "≤ 2.7", "unit": "% moisture mass/mass"},
      {"measurement": "effect on NREM sleep compared to vehicle controls", "setting": "Wistar rats", "value": "+27%"},
      {"measurement": "effect on REM sleep compared to vehicle controls", "setting": "Wistar rats", "value": "+53%"},
      {"measurement": "effect on active wake compared to vehicle controls", "setting": "Wistar rats", "value": "−24", "unit": "%"},
      {"measurement": "effect on home cage activity compared to vehicle controls", "setting": "Wistar rats", "value": "−31", "unit": "%"}
    ]},
    {"smiles": "Cn1c(SCC(=O)N2CCC[C@H]2C(=O)Nc2ccccc2-c2ccccc2)nc2ccccc21", "note": "[N-biphenyl-2-yl-1-{[(1-methyl-1H-benzimidazol-2-yl)sulfanyl]acetyl}-L-prolinamide]", "values": [
      {"measurement": "nicotine-reinstatement for a conditioned reinforcer", "setting": "rodents [2]", "value": "inhibited"},
      {"measurement": "behavioral (locomotor sensitization) and molecular (transcriptional responses) changes", "setting": "rodents [3]", "value": "reduced"}
    ]},
    {"smiles": "CNC(=O)[C@@H](c1ccccc1)N1CCc2cc(OC)c(OC)cc2[C@@H]1CCc1ccc(C(F)(F)F)cc1", "note": "[(2R)-2-{(1S)-6,7-dimethoxy-1-[2-(4-trifluoromethyl-phenyl)-ethyl]-3,4-dihydro-1H-isoquinolin-2-yl}-N-methyl-2-phenyl-acetamide]", "values": [
      {"measurement": "antidepressant-like activity", "setting": "mouse", "value": "induce antidepressant-like activity"},
      {"measurement": "alertness (active wake and locomotion)", "setting": "rat [4]", "value": "decrease alertness"},
      {"measurement": "time spent in REM and NREM sleep", "setting": "rat [4]", "value": "dose-dependently increase"},
      {"measurement": "cardiovascular responses to conditioned fear and novelty exposure", "setting": "rats [5]", "value": "attenuated"},
      {"measurement": "clinical efficacy", "setting": "humans", "value": "showed clinical efficacy"},
      {"measurement": "activity in nicotine self-administration", "setting": "rat [6]", "value": "displayed pharmacological activity"},
      {"measurement": "activity in rat fear-potentiated startle paradigm", "setting": "rat [7]", "value": "active"},
      {"measurement": "natural activation induced by orexin A", "setting": "fasted hungry rats", "value": "attenuate"},
      {"measurement": "brain levels of amyloid-beta (Aβ) and Aβ plaque deposition", "setting": "[8]", "value": "decreased"},
      {"measurement": "declarative and non-declarative learning and memory", "setting": "rats [9]", "value": "intact"}
    ]},
    {"smiles": "COc1ccc(-n2nccn2)c(C(=O)N2CCC[C@@]2(C)c2nc3ccc(Cl)c(C)c3[nH]2)c1.Cl", "note": "[COMPOUND hydrochloride, (S)-(2-(6-chloro-7-methyl-1H-benzo[d]imidazol-2-yl)-2-methylpyrrolidin-1-yl)(5-methoxy-2-(2H-1,2,3-triazol-2-yl)phenyl)methanone hydrochloride]", "values": [
      {"measurement": "Hygroscopicity classification", "setting": "[1]; 25° C., European Pharmacopeia Technical Guide classification", "value": "Non hygroscopic (mass change smaller then"},
      {"measurement": "Hygroscopicity: mass change", "setting": "[1]; between 40% and 80% relative humidity, first adsorption scan, 25° C.", "value": "< 0.1", "unit": "%"},
      {"measurement": "Sorption behavior between cycles", "setting": "[1]; first to second cycle", "value": "Reproducible, cycle independent"}
    ]}
  ]
}
